Laboratory results published in the NIST ThermoML archive (doi:10.1016/j.jct.2005.03.002).

Test: xn = mol fraction of the nth substance listed
Conditions: 101.33 kPa, Liquid

CCOS(=O)(=O)[O-].CCn1cc[n+](C)c1 [1-ethyl-3-methylimidazolium ethyl sulfate] + O
mass density [kg/m3]
Conditions | 278.2 K | 288.2 K | 298.2 K | 308.2 K | 318.2 K | 328.2 K | 338.2 K
x2 = 0 | 1243 | 1236.2 | 1229.6 | 1223 | 1216.2 | 1209.9 | 1203.7
x2 = 0.0503 | 1242.6 | 1235.5 | 1229 | 1222.6 | 1216.2 | 1209.8 | 1203.6
x2 = 0.0983 | 1241.6 | 1234.7 | 1227.9 | 1221.6 | 1215.1 | 1208.6 | 1202.5
x2 = 0.1495 | 1240.2 | 1233.5 | 1226.9 | 1220.5 | 1213.9 | 1207.5 | 1201.2
x2 = 0.1996 | 1239.2 | 1232.7 | 1226.2 | 1219.5 | 1213 | 1206.6 | 1200.1
x2 = 0.2505 | 1238.3 | 1231.1 | 1224.7 | 1218.3 | 1211.7 | 1205.3 | 1198.7
x2 = 0.2999 | 1236.7 | 1229.8 | 1223.1 | 1216.6 | 1210.1 | 1203.8 | 1198
x2 = 0.3504 | 1235.6 | 1228.5 | 1221.8 | 1215.3 | 1208.7 | 1202.4 | 1196.1
x2 = 0.3987 | 1233.4 | 1226.6 | 1220.1 | 1213.4 | 1206.8 | 1200.3 | 1194.3
x2 = 0.4505 | 1231.1 | 1224.4 | 1218 | 1211.2 | 1204.6 | 1198.6 | 1192.2
x2 = 0.4994 | 1228.7 | 1222 | 1215.4 | 1208.8 | 1202.2 | 1196.2 | 1189.9
x2 = 0.5495 | 1225.8 | 1219.1 | 1212.3 | 1205.8 | 1199.4 | 1193 | 1186.8
x2 = 0.6 | 1222.1 | 1215.3 | 1208.7 | 1202 | 1195.6 | 1189.2 | 1183
x2 = 0.6504 | 1217.2 | 1210.7 | 1203.8 | 1197.4 | 1190.8 | 1184.4 | 1178
x2 = 0.6999 | 1211.5 | 1204.7 | 1198.3 | 1191.5 | 1184.7 | 1178.2 | 1171.8
x2 = 0.7502 | 1203.2 | 1196.8 | 1190 | 1183.3 | 1176.6 | 1170 | 1163.8
x2 = 0.8 | 1192.4 | 1185.7 | 1178.9 | 1172.4 | 1165.6 | 1159.1 | 1153.1
x2 = 0.8499 | 1176.4 | 1169.9 | 1163.4 | 1156.8 | 1150 | 1143.9 | 1137.8
x2 = 0.9 | 1149.2 | 1142.9 | 1136.6 | 1130.3 | 1124.4 | 1117.8 | 1112.4
x2 = 0.94 | 1107.2 | 1101.8 | 1096.4 | 1090.8 | – | – | –
